Data as given in paper PMC11597050, “Virtual Screening, Molecular Dynamics, and Mechanism Study of Homeodomain-Interacting Protein Kinase 2 Inhibitor in Renal Fibroblasts” (Pharmaceuticals, 2024).

Assays:
Assay type in all cases: biochemical
HIPK2 [1] = biological target: T1, HIPK2 (Homo sapiens, UniProt Q9H2X6); experiment: ADP-Glo kinase assay (MBP substrate); conditions: read-out: IC50 ± SEM (μM) / HIPK2
HIPK2 [2] = biological target: T1, HIPK2; experiment: ADP-Glo kinase assay (positive control drug); conditions: read-out: IC50 ± SEM (μM) / HIPK2
HIPK3 = HIPK3 (Homo sapiens, UniProt Q9H422); experiment: kinase inhibition assay, percent inhibition at […]
Chain of HIPK3 (Q9H422 whole entry): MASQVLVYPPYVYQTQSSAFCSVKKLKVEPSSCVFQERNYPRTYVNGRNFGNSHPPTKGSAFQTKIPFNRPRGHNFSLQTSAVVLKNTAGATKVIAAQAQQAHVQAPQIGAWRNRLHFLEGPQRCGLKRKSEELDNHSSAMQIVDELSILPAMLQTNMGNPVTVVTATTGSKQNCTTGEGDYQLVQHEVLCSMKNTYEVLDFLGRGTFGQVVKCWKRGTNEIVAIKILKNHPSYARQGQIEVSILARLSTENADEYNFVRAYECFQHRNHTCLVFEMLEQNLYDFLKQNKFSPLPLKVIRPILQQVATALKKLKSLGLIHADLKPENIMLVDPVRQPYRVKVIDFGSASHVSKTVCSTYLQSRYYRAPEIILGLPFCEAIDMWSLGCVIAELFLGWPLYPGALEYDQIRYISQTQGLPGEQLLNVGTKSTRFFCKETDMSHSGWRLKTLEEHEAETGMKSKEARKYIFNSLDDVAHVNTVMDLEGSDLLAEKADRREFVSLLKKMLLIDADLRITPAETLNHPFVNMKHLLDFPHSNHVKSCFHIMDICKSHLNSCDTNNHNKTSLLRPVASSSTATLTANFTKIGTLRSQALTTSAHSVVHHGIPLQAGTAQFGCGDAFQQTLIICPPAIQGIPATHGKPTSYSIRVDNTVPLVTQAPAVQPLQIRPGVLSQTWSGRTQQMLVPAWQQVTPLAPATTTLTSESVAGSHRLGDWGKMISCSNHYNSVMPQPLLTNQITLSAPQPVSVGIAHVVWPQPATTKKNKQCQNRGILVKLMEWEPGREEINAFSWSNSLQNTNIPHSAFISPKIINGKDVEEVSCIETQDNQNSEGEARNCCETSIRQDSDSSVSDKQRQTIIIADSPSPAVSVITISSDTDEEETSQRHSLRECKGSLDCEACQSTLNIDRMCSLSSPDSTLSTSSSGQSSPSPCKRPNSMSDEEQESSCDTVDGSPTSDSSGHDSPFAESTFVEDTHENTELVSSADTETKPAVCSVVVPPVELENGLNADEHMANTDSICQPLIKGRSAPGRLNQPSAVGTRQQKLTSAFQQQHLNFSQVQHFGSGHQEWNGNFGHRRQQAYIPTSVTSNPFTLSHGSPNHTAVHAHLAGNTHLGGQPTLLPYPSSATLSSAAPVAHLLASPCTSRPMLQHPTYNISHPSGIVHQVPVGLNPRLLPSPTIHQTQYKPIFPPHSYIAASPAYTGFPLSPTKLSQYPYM

T1 sequence (Q9H2X6 whole entry): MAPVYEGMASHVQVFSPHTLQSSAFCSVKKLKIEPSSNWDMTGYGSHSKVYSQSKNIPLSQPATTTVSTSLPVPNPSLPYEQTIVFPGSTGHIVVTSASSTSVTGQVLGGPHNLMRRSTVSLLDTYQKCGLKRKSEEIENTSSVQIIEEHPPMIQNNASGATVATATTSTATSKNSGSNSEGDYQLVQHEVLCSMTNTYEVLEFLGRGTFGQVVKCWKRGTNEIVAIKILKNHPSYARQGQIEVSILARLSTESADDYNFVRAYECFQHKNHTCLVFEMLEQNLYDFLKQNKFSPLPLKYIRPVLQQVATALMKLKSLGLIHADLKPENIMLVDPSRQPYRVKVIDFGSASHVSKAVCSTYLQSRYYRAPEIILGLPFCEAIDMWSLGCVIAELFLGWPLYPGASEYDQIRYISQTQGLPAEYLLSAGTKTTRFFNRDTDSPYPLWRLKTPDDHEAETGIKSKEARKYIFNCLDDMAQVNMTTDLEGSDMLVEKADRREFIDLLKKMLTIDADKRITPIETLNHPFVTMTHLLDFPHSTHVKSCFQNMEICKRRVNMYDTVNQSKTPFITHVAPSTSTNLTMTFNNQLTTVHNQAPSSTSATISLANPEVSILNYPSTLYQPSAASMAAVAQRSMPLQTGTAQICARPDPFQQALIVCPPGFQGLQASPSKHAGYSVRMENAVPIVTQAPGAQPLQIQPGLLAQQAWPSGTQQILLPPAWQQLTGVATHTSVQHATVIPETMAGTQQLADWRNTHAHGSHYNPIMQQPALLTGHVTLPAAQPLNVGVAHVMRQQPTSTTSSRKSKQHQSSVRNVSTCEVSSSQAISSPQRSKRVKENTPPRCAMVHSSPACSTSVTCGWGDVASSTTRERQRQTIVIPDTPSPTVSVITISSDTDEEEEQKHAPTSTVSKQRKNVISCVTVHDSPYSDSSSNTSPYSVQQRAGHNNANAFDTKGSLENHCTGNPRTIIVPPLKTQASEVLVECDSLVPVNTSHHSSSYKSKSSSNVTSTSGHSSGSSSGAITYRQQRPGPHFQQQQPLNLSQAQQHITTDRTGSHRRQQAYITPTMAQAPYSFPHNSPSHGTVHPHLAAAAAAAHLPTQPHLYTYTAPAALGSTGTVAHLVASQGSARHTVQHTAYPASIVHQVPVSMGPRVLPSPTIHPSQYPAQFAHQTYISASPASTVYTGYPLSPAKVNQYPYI

Structure (SMILES) | IC50 (HIPK2 [1]) | IC50 (HIPK2 [2]) | inhibition at 10 µM (HIPK3)
O=C1Nc2ccc3ncsc3c2/C1=C/c1c[nH]cn1 [T16550] | 3.58 ± 0.06 µM | – | –
CCN1CCN(Cc2ccc(Nc3ncc(F)c(-c4cc(F)c5nc(C)n(C(C)C)c5c4)n3)nc2)CC1 [Abemaciclib] | – | 0.45 ± 0.12 µM | > 90%
CCCNc1ccc2ncc(-c3ccc4[nH]ncc4c3)n2n1 [T9521, 3-(1H-indazol-5-yl)-N-propylimidazo[1,2-b]pyridazin-6-amine] | 0.97 ± 0.04 µM | – | –
